Assay: Solubility of thioxanthone compound and tertiary amine compound in water-soluble organic solvent at 25° C.
[1] = in 4-(2-hydroxyethyl)morpholine
[2] = in 3-morpholino-1,2-propanediol

| SMILES | solubility (25° C.) (in 4-ethylmorpholine) [mass %] | solubility (25° C.) [1] [mass %] | solubility (25° C.) (in 2-(2-butoxyethoxy)ethanol) [mass %] | solubility (25° C.) (in 3-methylsulfolane) [mass %] | solubility (25° C.) [2] [mass %] | solubility (25° C.) (in 4-(2-aminoethyl)morpholine) [mass %] | solubility (25° C.) (in 4-acetylmorpholine) [mass %] | solubility (25° C.) (in 4-hydroxypropylmorpholine) [mass %] |
| --- | --- | --- | --- | --- | --- | --- | --- | --- |
| CC(C)c1ccc2sc3ccccc3c(=O)c2c1 [2-isopropylthioxanthone] | 30 |  |  |  |  |  |  |  |
| CCOC(=O)c1ccc(N(CC)CC)cc1 [4-diethylamino ethyl benzoate] |  | 27 |  |  |  |  |  |  |
| CCc1cc(CC)c2sc3ccccc3c(=O)c2c1 [Kayacure DETX-S, 2,4-diethylthioxanthone] |  | 15 | 17 | 4 | 9 | 14 | 20 |  |
| CCOC(=O)c1ccc(N(C)C)cc1 [Kayacure EPA, 4-dimethylamino ethyl benzoate] | 40 | 30 | 30 | 18 | 30 | 30 | 35 | 18 |
